# Reference: ChEMBL document CHEMBL1201862, “PubChem BioAssay data set” (2004)
# Calls of active or inactive are those of the source.
# Legend:
# [1] = test system: HeLa; test: HeLa cell cytotoxicity, dose response, cytotoxicity control, 24 h, cherry-picked samples (AID 504726); format: functional, cell-based; details: Homo sapiens;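 also: potency for cytotoxicity as loss of luminescence signal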
# [2] = target: ORF 73 (Human herpesvirus 8, UniProt O40947); test: inhibitors of C-LANA binding to LBS DNA, dose response, biochemical, fluorescence polarization, cherry-picked samples (AID 504725); set-up: species or system Human gammaherpesvirus 8;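 also: fluorescence polarization of a labeled DNA duplex reporting LANA DNA binding; potency is for inhibitors that block LANA binding to the DNA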
# [3] = target: T1, Insulin-degrading enzyme (Homo sapiens, UniProt P14735); test: activators of recombinant IDE enzyme, dose response, counter-screen for IDE activator project, biochemical, fluorescence polarization (AID 588681)
# T1 sequence (P14735 whole entry): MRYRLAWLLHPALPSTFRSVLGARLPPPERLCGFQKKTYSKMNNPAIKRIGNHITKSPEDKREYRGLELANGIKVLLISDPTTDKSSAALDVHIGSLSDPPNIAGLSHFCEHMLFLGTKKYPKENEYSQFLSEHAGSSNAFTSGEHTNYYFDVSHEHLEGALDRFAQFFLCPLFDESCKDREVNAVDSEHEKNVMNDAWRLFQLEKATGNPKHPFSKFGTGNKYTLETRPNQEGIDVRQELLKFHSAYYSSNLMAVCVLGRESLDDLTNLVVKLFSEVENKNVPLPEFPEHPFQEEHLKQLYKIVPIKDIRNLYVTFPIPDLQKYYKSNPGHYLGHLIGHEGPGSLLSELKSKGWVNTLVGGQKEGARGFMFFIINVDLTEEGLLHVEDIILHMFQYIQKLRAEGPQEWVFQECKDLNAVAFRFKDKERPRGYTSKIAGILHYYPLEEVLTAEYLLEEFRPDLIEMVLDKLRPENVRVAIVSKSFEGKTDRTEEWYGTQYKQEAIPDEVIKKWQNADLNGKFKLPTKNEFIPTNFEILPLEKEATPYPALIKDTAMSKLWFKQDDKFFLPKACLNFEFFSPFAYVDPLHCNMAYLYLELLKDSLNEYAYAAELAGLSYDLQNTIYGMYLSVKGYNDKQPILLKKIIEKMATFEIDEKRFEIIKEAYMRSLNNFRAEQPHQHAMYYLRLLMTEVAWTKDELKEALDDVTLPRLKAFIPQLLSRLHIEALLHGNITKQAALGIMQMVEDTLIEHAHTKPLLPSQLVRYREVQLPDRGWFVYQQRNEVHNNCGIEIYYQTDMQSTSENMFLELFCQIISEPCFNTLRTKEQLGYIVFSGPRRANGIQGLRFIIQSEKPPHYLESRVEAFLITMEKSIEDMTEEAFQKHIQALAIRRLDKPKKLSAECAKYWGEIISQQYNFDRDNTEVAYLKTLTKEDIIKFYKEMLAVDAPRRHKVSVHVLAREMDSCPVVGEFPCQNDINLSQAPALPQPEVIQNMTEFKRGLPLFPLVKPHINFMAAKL
# [4] = target: T1, Insulin-degrading enzyme; test: activators of endogenous IDE in HEK cells, dose response, cell-based, fluorescence polarization (AID 588439); format: functional
# [5] = test system: HEK293; test: HEK cell cytotoxicity by LDH release, dose response, cytotoxicity control for IDE activator project, fluorescence, HEK cells (AID 588440); format: functional, cell-based, Homo sapiens; details: hek293;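 also: cytotoxicity by LDH release measuring loss of membrane integrity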
# [6] = HeLa cell cytotoxicity, dose response, cytotoxicity control for MgcRacGAP inhibitor project (AID 624300); format: functional
# [7] = target: T2, Rac GTPase-activating protein 1 (Homo sapiens, UniProt Q9H0H5); test: MgcRacGAP GTPase-activating activity inhibitors, confirmation, biochemical, ADP Hunter fluorescence, primary and confirmatory (AID 624330); format: functional
# T2 sequence (Q9H0H5 whole entry): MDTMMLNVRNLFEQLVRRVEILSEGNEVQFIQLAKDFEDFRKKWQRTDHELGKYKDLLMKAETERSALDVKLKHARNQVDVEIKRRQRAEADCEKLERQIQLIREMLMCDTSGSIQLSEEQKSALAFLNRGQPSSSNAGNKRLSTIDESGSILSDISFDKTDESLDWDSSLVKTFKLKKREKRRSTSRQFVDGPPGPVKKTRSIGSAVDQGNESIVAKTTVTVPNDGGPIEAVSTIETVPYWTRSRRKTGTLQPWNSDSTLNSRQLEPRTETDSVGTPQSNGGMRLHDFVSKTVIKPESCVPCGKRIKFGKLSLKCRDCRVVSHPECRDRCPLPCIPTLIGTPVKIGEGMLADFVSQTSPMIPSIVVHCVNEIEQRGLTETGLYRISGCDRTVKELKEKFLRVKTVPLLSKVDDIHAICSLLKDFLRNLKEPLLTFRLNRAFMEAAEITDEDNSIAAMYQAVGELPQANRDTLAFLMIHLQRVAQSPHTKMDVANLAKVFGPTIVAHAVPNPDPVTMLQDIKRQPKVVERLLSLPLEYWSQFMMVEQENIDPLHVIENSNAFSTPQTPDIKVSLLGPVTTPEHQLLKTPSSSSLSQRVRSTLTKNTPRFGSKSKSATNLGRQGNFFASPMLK
# [8] = target: T3, Eukaryotic translation initiation factor 2-alpha kinase 3 (Homo sapiens, UniProt Q9NZJ5); test: Dose response cell-based high-throughput screening assay to measure PERK inhibition. [Related pubchem assays: 1416 ]; format: functional
# T3 sequence (Q9NZJ5 whole entry): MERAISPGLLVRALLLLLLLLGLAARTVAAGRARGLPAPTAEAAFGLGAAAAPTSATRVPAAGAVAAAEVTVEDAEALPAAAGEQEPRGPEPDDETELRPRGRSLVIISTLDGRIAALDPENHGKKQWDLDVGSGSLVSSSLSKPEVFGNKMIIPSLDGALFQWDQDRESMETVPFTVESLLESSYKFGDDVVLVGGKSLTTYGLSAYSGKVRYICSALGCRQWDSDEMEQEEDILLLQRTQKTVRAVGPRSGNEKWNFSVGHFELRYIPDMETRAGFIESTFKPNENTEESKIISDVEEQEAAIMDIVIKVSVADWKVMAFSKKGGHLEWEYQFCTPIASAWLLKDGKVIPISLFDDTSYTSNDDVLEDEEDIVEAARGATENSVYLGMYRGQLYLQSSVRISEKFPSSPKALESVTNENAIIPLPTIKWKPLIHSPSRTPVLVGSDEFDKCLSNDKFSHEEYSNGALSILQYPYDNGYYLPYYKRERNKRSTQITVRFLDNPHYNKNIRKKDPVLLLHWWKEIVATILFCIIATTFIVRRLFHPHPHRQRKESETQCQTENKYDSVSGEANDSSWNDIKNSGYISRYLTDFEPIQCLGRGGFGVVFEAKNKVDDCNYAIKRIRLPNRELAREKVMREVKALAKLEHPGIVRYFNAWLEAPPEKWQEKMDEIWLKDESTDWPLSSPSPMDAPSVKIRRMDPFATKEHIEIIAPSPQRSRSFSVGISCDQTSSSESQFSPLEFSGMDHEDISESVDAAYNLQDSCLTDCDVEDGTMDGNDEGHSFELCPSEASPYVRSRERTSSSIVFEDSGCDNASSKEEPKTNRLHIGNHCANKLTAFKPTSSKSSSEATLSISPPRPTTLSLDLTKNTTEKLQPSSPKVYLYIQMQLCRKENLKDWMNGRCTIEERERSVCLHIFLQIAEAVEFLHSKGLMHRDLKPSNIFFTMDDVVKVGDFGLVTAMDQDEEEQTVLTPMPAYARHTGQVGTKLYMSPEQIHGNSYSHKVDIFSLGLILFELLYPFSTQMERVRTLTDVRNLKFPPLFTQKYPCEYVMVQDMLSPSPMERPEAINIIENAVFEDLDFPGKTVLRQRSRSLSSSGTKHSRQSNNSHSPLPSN
# [9] = target: T3, Eukaryotic translation initiation factor 2-alpha kinase 3; test: Counterscreen assay for PERK inhibitors: Dose response cell-based high throughput screening assay to measure inhibition of PERK at 6 hours. [Related pubchem assays: 1522, 1416 ]; format: functional
# [10] = target: Neurotensin receptor type 1 (Homo sapiens, UniProt P30989); format: functional;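 also: Image-based confirmatory dose-response assay measuring agonist activity at NTR1; NTR1-expressing U2OS osteosarcoma cells imaged for beta-arrestin GFP spot formation; agonist potency where compounds increase beta-arrestin recruitment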
# [11] = target: Cytochrome P450 2C9 (Homo sapiens, UniProt P11712); details: Potency
# [12] = target: T4, Alkaline phosphatase, tissue-nonspecific isozyme (Homo sapiens, UniProt P05186)
# T4 sequence (P05186 whole entry): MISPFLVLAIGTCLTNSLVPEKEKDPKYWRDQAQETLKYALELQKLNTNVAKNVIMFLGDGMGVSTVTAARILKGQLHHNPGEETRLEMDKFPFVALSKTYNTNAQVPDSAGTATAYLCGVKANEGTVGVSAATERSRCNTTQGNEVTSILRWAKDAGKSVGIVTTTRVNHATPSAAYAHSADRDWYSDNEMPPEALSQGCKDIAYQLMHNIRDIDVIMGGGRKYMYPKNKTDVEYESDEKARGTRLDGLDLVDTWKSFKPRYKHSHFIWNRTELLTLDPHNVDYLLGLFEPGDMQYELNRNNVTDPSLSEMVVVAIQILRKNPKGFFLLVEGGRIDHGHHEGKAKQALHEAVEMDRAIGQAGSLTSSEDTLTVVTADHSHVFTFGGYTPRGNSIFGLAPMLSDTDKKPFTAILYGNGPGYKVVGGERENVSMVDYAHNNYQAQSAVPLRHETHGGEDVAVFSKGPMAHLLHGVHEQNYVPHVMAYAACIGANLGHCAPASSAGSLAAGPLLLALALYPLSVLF
# [13] = target: Prothrombin (Homo sapiens, UniProt P00734); test: Thrombin 1536 HTS Dose Response Confirmation. [Related pubchem assays: 1046 (Thrombin 1536 HTS; hits were confirmed in this assay)]; format: functional
# [14] = target: Protein-tyrosine kinase 2-beta (Homo sapiens, UniProt Q14289);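 also: potency of inhibitors of PYK2 kinase phosphorylation of poly-GT substrate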
# [15] = target: Cyclin-dependent kinase 5/CDK5 activator 1 (Homo sapiens, UniProt Q00535); test: CDK5/p35 kinase inhibitors, dose response, biochemical, cherry-picked samples, set 2 (AID 504545)
# [16] = target: T5, Heat shock factor protein 1 (Mus musculus, UniProt P38532); test: HSF1 potentiators in luciferase reporter cells, confirmation, cell-based, NIH3T3, luminescence, dose retest (AID 435004); format: functional;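 also: stress induced by proteasome inhibitor MG132 added 30 min after compound; luciferase reporter driven by HSF1 response element in NIH3T3 cells; actives raise luminescence as potentiators of the MG132 stress response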
# T5 sequence (P38532 whole entry): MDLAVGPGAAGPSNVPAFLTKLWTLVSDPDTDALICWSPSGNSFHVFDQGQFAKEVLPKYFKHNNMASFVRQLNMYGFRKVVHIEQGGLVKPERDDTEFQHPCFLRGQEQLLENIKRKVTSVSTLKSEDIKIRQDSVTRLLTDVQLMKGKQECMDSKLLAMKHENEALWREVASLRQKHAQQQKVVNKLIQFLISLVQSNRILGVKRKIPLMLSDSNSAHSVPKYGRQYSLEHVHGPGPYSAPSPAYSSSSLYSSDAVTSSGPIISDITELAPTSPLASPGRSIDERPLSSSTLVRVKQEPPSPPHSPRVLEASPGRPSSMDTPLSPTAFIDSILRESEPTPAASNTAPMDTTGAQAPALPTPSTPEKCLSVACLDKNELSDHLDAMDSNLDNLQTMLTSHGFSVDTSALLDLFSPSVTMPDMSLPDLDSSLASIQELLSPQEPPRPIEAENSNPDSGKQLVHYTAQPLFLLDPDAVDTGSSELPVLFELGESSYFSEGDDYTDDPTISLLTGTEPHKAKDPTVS
# [17] = target: Melanin-concentrating hormone receptor 1 (Homo sapiens, UniProt Q99705); test: Fluorescence-based counterscreen for antagonists of the G-protein coupled receptor 7 (GPR7): cell-based high throughput dose response assay to identify antagonists of the melanin-concentrating hormone receptor 1 (MCHR1).; format: functional
# [18] = target: Trypsin (Sus scrofa, UniProt P00761); test: porcine trypsin inhibitors, dose response, selectivity assay for Rce1 protease inhibitor project, biochemical, quenched peptide fluorescence, cherry-pick (AID 488789)
# [19] = microbe, parasite or virus in culture; format: functional; details: Mycobacterium tuberculosis
# [20] = HepG2 cell cytotoxicity, dose response, cytotoxicity control, plate reader, cherry-pick, antagonist series (AID 743416); format: functional, cell-based
# [21] = LGR2 antagonists, dose response, cell-based, HEK293, CRE-luciferase reporter, cherry pick, set 2 (AID 743343); format: functional;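 also: transfected cells were stimulated with diluted bursicon conditioned medium after compound addition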
# [22] = MC4R antagonists, dose response, counter-screen for LGR2 antagonist project, cell-based, plate reader, cherry pick (AID 743444); format: functional;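 also: transfected HEK 293 cells stimulated with alpha-MSH peptide; potency of inhibitors of the alpha-MSH evoked signal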
# [23] = target: Albumin (Bos taurus, UniProt P02769); test: Counterscreen for inhibitors of T-cell receptor (TCR)-CD3 interaction: Fluorescence-based biochemical high throughput dose response assay to identify inhibitors of T-cell receptor (TCR)-CD3 interaction using a TAMRA-labeled BSA probe.; format: functional
# Chain of Albumin (P02769 whole entry): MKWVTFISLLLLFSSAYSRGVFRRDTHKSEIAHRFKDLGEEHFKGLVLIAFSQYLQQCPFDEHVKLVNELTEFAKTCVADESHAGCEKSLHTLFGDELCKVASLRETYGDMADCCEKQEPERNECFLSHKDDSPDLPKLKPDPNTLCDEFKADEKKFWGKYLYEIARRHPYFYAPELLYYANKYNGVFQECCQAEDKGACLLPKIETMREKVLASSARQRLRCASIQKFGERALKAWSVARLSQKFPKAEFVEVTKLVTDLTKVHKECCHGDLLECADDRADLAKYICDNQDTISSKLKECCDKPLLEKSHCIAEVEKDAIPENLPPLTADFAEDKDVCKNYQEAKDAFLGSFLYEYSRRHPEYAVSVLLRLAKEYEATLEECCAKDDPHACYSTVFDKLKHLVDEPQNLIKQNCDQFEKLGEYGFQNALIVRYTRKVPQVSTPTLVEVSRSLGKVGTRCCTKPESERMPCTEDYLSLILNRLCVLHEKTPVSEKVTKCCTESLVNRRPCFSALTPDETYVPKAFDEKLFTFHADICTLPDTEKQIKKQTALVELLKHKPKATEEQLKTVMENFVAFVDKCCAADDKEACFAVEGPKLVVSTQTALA
# Chain of Neurotensin receptor type 1 (P30989 whole entry): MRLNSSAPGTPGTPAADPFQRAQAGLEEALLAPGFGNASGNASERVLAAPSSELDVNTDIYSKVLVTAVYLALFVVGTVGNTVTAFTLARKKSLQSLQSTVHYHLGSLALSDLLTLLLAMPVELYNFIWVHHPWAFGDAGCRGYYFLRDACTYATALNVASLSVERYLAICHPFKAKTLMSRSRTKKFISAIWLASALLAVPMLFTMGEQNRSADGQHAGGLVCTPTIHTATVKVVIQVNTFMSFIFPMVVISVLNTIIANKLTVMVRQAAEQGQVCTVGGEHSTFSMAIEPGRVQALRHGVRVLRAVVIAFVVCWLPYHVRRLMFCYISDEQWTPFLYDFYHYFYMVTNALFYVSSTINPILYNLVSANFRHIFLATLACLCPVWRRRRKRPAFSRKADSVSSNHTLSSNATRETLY
# Chain of Cytochrome P450 2C9 (P11712 whole entry): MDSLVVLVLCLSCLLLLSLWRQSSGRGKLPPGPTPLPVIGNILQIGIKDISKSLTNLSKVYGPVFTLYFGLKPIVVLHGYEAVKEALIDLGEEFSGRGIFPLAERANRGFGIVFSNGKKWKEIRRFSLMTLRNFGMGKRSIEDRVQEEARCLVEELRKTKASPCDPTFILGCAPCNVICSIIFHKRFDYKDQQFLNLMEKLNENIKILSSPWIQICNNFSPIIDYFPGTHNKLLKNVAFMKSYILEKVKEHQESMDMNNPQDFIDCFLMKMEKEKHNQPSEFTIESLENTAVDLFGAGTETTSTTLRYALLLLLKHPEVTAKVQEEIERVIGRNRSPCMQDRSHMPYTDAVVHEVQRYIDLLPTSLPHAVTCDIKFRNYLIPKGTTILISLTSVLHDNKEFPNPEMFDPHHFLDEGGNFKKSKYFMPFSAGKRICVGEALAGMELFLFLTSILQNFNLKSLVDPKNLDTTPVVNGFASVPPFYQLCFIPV
# Chain of Melanin-concentrating hormone receptor 1 (Q99705 whole entry): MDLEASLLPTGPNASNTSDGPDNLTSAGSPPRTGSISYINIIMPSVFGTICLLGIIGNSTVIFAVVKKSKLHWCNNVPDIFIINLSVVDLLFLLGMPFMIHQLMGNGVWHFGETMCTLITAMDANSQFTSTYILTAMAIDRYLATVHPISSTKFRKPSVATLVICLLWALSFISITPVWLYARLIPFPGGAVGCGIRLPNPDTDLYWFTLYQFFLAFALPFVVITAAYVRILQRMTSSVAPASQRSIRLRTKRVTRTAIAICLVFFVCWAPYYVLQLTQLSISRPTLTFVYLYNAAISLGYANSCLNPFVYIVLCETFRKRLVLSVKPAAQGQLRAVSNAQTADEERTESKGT
# Chain of ORF 73 (O40947 whole entry): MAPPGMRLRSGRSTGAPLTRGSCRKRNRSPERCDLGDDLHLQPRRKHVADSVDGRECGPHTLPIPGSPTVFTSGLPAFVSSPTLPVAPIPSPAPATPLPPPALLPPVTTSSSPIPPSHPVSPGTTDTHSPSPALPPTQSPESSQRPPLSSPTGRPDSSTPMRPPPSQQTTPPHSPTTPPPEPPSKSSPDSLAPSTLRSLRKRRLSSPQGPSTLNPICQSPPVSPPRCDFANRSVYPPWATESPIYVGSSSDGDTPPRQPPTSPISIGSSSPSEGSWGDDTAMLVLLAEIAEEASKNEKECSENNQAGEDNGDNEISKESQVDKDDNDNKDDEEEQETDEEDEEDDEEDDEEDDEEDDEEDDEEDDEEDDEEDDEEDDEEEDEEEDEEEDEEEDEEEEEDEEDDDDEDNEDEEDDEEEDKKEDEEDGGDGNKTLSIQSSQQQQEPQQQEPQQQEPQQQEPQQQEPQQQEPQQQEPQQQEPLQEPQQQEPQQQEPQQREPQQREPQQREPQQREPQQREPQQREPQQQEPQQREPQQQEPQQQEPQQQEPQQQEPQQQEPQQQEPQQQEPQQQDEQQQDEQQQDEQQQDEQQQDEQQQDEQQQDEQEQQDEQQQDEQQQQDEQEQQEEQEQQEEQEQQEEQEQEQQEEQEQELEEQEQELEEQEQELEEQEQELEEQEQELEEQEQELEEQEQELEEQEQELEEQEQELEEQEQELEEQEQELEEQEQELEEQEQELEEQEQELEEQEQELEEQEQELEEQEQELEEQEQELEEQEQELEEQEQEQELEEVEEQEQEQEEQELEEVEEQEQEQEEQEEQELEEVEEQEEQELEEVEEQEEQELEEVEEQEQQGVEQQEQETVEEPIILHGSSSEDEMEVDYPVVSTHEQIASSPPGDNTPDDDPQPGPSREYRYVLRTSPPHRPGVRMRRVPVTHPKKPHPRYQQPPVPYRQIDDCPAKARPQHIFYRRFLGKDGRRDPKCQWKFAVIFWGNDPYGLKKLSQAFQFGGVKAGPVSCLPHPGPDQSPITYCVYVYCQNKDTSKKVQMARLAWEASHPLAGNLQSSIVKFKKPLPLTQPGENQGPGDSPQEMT
# Chain of Trypsin (P00761 whole entry): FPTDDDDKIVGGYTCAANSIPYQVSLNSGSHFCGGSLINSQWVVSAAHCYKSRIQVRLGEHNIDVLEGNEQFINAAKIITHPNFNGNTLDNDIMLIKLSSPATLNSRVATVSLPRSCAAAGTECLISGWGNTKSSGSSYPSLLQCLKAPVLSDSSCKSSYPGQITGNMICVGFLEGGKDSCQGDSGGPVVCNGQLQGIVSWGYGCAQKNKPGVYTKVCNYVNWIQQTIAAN
# Chain of Protein-tyrosine kinase 2-beta (Q14289 whole entry): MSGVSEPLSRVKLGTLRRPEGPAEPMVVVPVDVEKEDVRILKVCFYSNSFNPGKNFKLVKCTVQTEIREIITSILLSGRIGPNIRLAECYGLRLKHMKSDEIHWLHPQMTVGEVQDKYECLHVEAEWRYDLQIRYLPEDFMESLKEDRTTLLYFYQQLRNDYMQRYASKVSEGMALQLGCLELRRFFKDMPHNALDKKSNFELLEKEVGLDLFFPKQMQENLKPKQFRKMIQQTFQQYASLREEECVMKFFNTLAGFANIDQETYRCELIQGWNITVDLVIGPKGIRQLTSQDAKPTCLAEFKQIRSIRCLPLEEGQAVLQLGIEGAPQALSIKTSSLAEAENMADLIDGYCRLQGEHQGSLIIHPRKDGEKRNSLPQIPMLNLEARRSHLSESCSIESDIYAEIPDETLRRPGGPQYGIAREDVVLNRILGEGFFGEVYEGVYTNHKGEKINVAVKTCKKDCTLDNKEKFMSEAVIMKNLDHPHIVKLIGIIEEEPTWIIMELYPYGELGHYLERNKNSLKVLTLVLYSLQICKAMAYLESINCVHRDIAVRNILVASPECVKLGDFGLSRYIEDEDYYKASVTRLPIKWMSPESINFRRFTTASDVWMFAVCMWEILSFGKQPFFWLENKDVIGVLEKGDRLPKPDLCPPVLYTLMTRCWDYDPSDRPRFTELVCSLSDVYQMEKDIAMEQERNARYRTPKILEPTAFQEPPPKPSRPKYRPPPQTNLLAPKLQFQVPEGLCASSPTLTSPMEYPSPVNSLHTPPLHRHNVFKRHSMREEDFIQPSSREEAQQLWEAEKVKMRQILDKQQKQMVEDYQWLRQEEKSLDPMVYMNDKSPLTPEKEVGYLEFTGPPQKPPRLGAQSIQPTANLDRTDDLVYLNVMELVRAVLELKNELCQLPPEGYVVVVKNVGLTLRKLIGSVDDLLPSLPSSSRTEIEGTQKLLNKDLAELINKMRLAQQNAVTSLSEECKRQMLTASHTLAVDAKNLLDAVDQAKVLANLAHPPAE
# Chain of Cyclin-dependent kinase 5/CDK5 activator 1 (Q00535 whole entry): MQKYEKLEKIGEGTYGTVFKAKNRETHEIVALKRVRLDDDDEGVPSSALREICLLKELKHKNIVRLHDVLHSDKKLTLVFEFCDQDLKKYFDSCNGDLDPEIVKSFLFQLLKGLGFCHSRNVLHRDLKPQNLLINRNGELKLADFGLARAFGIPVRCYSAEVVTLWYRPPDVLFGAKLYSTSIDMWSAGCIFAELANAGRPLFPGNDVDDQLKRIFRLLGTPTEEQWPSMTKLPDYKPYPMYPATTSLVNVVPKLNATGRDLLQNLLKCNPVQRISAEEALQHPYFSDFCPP
# Chain of Cyclin-dependent kinase 5/CDK5 activator 1 (Q15078 whole entry, further chain): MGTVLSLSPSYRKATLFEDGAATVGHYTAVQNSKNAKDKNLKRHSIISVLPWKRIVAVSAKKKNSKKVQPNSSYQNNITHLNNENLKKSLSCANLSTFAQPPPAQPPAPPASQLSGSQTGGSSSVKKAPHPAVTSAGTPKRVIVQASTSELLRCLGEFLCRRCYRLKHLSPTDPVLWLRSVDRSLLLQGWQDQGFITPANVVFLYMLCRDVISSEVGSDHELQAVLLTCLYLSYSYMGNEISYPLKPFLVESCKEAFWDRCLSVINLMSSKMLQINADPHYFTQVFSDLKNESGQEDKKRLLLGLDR
smiles,measurement,setting,value
C[n+]1c2cc(N)ccc2cc2ccc(N)cc21 [EUFLAVINE],AC50,[1],14.7 µM (active)
same,AC50,[2],0.415 µM (active)
same,EC50,[3],> 54.7 µM (inactive)
same,EC50,[4],> 54.7 µM (inactive)
same,IC50,[5],> 89.2 µM (inactive)
same,CC50,[6],11.6 µM (active)
same,IC50,[7],78.3 µM (active)
CC(NS(=O)(=O)c1ccccc1)c1nnc(S)n1-c1ccccc1 (stereo not drawn),EC50,[8],> 55.7 µM (not active)
same,EC50,[9],> 55.7 µM (not active)
COc1cc(/C=N/Nc2nc(-c3ccc(S(=O)(=O)N(C)C)cc3)cs2)ccc1O,EC50,[10],17.6 µM (active)
CCOC(=O)OCC1OC(c2ccccc2)C=CC1OC(=O)OCC (stereo not drawn),AC50,[11],3.16 µM (inconclusive)
COc1ccc(CCNC(=O)C2CCC(CNS(=O)(=O)c3ccccc3)CC2)cc1OC (stereo not drawn),EC50,[12],> 100 µM (not active)
same,IC50,[13],> 50 µM (not active)
C=C[C@@](C)(O)CC[C@H]1[C@]2(C)CCCC(C)(C)[C@H]2CC[C@]1(C)O,AC50,[11],31.6 µM (inconclusive)
O=C1Nc2ccccc2/C1=C/c1c[nH]cn1,IC50,[14],8.78 µM (active)
same,AC50,[15],0.268 µM (active)
same,EC50,[16],17.5 µM (active)
CCOC(=O)C(C)On1c(-c2ccccc2)nc2ccc([N+](=O)[O-])cc21 (stereo not drawn),IC50,[17],15.9 µM (not active)
Cc1cc(C)c(NC(=O)NC(=O)C(Cl)(Cl)Cl)c(C)c1,EC50,[8],> 55.7 µM (not active)
same,EC50,[9],> 55.7 µM (not active)
COc1ccc(-c2ccc(-c3nnc(-c4cc(OC)ccc4OC)o3)cc2)cc1,AC50,[18],10.4 µM (active)
COC(=O)c1ccc(NC(=O)CSc2nc3ccc(N4C(=O)C5C6C=CC(C6)C5C4=O)cc3s2)cc1 (stereo not drawn),CC50,[19],> 40 µM (active)
same,EC50,[10],> 40 µM (inactive)
same,AC50,[20],> 52 µM (inactive)
same,AC50,[21],8.11 µM (active)
same,AC50,[22],7.79 µM (active)
COc1ccc(/C=C2\SC(=O)N(CC(=O)NNC(=O)c3ccccc3O)C2=O)cc1,EC50,[12],64.3 µM (not active)
same,IC50,[23],> 94.1 µM (inactive)
